#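 Cells were grown in 96-well plates and exposed to each compound for 48 hours at five concentrations; endpoints were interpolated linearly between bracketing concentrations, or set to the highest concentration if not reached. Abbreviation: GI50, concentration required for 50% inhibition of growth. Definition used: TGI = concentration required for complete inhibition of growth.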
# Legend:
# Experiment in all cases: growth of human tumour cells (NCI), 48 h
# CCRF-CEM leukemia = tested on: CCRF-CEM leukemia
# HCT-116 colon = tested on: HCT-116 colon
# KM12 colon = tested on: KM12 colon
# LOX IMVI melanoma = tested on: LOX IMVI melanoma
# OVCAR-8 ovarian = tested on: OVCAR-8 ovarian
# SK-MEL-28 melanoma = tested on: SK-MEL-28 melanoma
# SK-MEL-5 melanoma = tested on: SK-MEL-5 melanoma
# SR leukemia = tested on: SR leukemia
# TK-10 renal = tested on: TK-10 renal
# UACC-62 melanoma = tested on: UACC-62 melanoma
Structure (SMILES),GI50 (CCRF-CEM leukemia),TGI (CCRF-CEM leukemia),GI50 (HCT-116 colon),TGI (HCT-116 colon),GI50 (KM12 colon),TGI (KM12 colon),GI50 (LOX IMVI melanoma),TGI (LOX IMVI melanoma),GI50 (OVCAR-8 ovarian),TGI (OVCAR-8 ovarian),GI50 (SK-MEL-28 melanoma),TGI (SK-MEL-28 melanoma),GI50 (SK-MEL-5 melanoma),TGI (SK-MEL-5 melanoma),GI50 (SR leukemia),TGI (SR leukemia),GI50 (TK-10 renal),TGI (TK-10 renal),GI50 (UACC-62 melanoma),TGI (UACC-62 melanoma)
CC(C)(C)n1cc(-c2ccnc(NCCNS(=O)(=O)c3ccc(Br)cc3)c2)c(-c2cccc(O)c2)n1,2.69 µM,18.2 µM,1.44 µM,2.86 µM,1.99 µM,4.32 µM,1.75 µM,3.15 µM,2.27 µM,7.71 µM,1.75 µM,3.26 µM,1.36 µM,2.67 µM,0.286 µM,6.16 µM,2.24 µM,5.93 µM,1.57 µM,3.08 µM
C/C(=N\NS(=O)(=O)c1ccc(C)cc1)c1ccc[n+]([O-])n1,,82.5 µM,,> 100 µM,,> 100 µM,,,,> 100 µM,,> 100 µM,,> 100 µM,,> 100 µM,,,,> 100 µM
O=C1C=C(Nc2cccc(Br)c2)c2ccccc2C1=O,21.4 µM,82.9 µM,10.6 µM,44.5 µM,4.13 µM,> 100 µM,4.35 µM,21.5 µM,18.6 µM,93.4 µM,8.76 µM,61.4 µM,1.2 µM,10.5 µM,10.2 µM,40.3 µM,,,2.96 µM,18 µM
Cc1c(C(C)C)cc(OCCO)cc1C(C)C,,> 100 µM,,> 100 µM,,> 100 µM,,63.4 µM,,> 100 µM,,> 100 µM,,38.1 µM,,73.8 µM,,> 100 µM,,> 100 µM
c1ccc(SCCCC(Sc2ccccc2)Sc2ccccc2)cc1,,> 100 µM,,> 100 µM,,> 100 µM,,> 100 µM,,> 100 µM,,> 100 µM,,> 100 µM,,> 100 µM,,> 100 µM,,> 100 µM
COc1ccc(C[C@H]2C[C@@H](O)[C@@H](C)C/C=C/Cc3cccc(O)c3C(=O)O2)cn1,,,19.5 µM,37.6 µM,23.5 µM,62.4 µM,19.1 µM,37.7 µM,29.4 µM,> 100 µM,27.2 µM,78.7 µM,17.6 µM,35.1 µM,7.44 µM,33.7 µM,24.5 µM,72.3 µM,22.1 µM,64.2 µM
O=C(Oc1c(I)ccccc1=O)c1ccc([N+](=O)[O-])cc1,,> 100 µM,,> 100 µM,,35.6 µM,,83.2 µM,,65.1 µM,,21.7 µM,,13.6 µM,,24.2 µM,,> 100 µM,,51 µM
Cc1ccc([P+](Cc2ccc([N+](=O)[O-])cc2)(c2ccc(C)cc2)c2ccc(C)cc2)cc1,1.92 µM,12.5 µM,1.49 µM,12 µM,2.44 µM,10.2 µM,2.32 µM,12.5 µM,2.96 µM,13 µM,2.82 µM,12.9 µM,1.22 µM,2.52 µM,2.84 µM,12.3 µM,,,1.43 µM,6.34 µM
CC1=CC2=C(C)C3(CC3)[C@@](C)(O)C(=O)C2=C1,,> 1 µM,,0.357 µM,,> 0.918 µM,,0.594 µM,,0.706 µM,,0.394 µM,,0.294 µM,,> 1 µM,,0.89 µM,,0.44 µM
CC(=O)NC1C(OCc2ccccc2)OC(COC(=O)CCCCCCCCCCNC(=O)c2cccc3c(=O)c4ccccc4[nH]c23)C(O)C1OC(C)C(=O)NC(C)C(=O)NC(CCC(N)=O)C(N)=O (configuration not stated),,,,> 100 µM,,> 100 µM,,> 100 µM,,> 100 µM,,> 100 µM,,> 100 µM,,> 100 µM,,> 100 µM,,> 100 µM
COC(=O)[C@H](Cc1ccccc1)NC(=O)c1csc([C@@H](C[C@H](C(C)C)N(C)C(=O)[C@@H](NC(=O)[C@H]2CCCCN2C)C2CC2)OC(C)=O)n1,0.021 µM,> 25 µM,0.0197 µM,> 25 µM,0.0844 µM,> 25 µM,0.0403 µM,> 25 µM,0.0898 µM,> 25 µM,1.01 µM,> 25 µM,0.0521 µM,3.37 µM,0.00563 µM,> 25 µM,0.473 µM,> 25 µM,0.247 µM,> 25 µM
Nc1ncnc2occ(-c3ccc(NC(=O)Nc4cc(C(F)(F)F)cc(C(F)(F)F)c4)cc3)c12,4.5 µM,19.2 µM,2.63 µM,5.64 µM,0.0916 µM,3.95 µM,3.27 µM,6.83 µM,2.89 µM,7.11 µM,4.24 µM,7.77 µM,3.52 µM,6.82 µM,2.03 µM,15.2 µM,1.84 µM,5.96 µM,3.26 µM,6.68 µM
Oc1cccc(-c2nc3ccccc3s2)c1,,> 100 µM,,> 100 µM,,48.6 µM,,77 µM,,> 100 µM,,> 100 µM,,,,> 100 µM,,,,> 100 µM
CC1Cc2c(N(C)C)ncnc2N(C)c2ccc(Cl)cc21 (configuration not stated),2.92 µM,18 µM,3.48 µM,23.6 µM,3.15 µM,> 100 µM,6 µM,27.2 µM,9.17 µM,> 100 µM,10.8 µM,> 100 µM,3.65 µM,13.8 µM,0.463 µM,20.3 µM,14.8 µM,> 100 µM,,
O=C(/C=C/N1CCN(c2cccc(C(F)(F)F)c2)CC1)c1ccc(Cl)cc1Cl,49.6 µM,> 100 µM,23.6 µM,50.2 µM,28.1 µM,75.9 µM,22.7 µM,47.1 µM,28.5 µM,83.4 µM,21.1 µM,43.9 µM,19.2 µM,36.9 µM,30.1 µM,56 µM,30.1 µM,87.3 µM,21.4 µM,41.8 µM

# Reference: PubChem BioAssay (NCI)
